Measured values taken from patent US7625583B2, “Dietary lipids for improving skin and coat of pets” (Nestec S.A., priority 2000, dated 2009).
Values after ≈ are worked out from the molar mass of the structure shown.

Tests used:
[1] = tested on: Pneumococci, Streptococcus, Corynebacteria, Micrococci, Candida, Staphylococcus aureus; settings: several skin pathogens; cited from earlier work
[2] = tested on: Staphylococcus intermedius; experiment: Colorimetric AlamarBlue microtiterplate MIC determination of fatty acids; format: cell-based; settings: two S. intermedius strains, 24 h at 30° C.
Text: (§1) A colorimetric method for quantitative measurement of the susceptibility of Staphylococcus aureus, Staphylococcus intermedius and Malassezia pachydermatis strains to fatty acids was developed. This method is based on the assays described by Hogan, J. S., et al, 1987, J. Dairy, Sci., 70, 927-934 and Tiballi, R. N., et al., 1995, J. Clin. Microbiol., 33 (4), 915-917.
(§2) The microorganisms used in this study were Staphylococcus aureus FSM 51, 52, 84 (food isolates), ATCC 6538, Staphylococcus intermedius BCCM™/LMG 9079, 13351 and Malassezia pachidermatis ATCC 14522. Staphylococcus strains were grown in Lab-Lemco broth (LL broth, Oxoid CM 15) for 18-20 h at 30° C. and Malassezia was cultivated for 5 days at 30° C. in liquid Dixon medium (30 g Malt extract, 20 g Oxbile, 15 g Agar, 5 g Mycological peptone, 2.5 g Glycerol mono-oleate, 10 ml Tween™ 40, pH=5.4±0.2). After washing in saline (Oxoid, BR53), cell pellets were resuspended in LL broth supplemented with 0.15% agar (w/v).
(§3) Minimal inhibitory concentrations (MICs) of palmitoleic, lauric and oleic acids (NU-CHECK-PREP, Inc, DK, U-40-A, N-12-A, U-46-A respectively) were investigated in a microtiterplate assay using an oxidation-reduction dye, AlamarBlue™ (Interchim, Fr), as an indicator of growth. Each plate was set up with each of the test microorganisms as follows: one column, 110 μl of sterile LL broth supplemented with 0.15% agar (negative control), one column, 100 μl of sterile LL broth supplemented with 0.15% agar plus 10 μl of test microorganism (positive control), other columns, 100 μl of serial two fold dilutions of the test fatty acids (diluted in LL broth supplemented with 0.15% agar) plus 10 μl of microorganism (final concentration of 10^3-10^4 cell/ml). Plates were incubated at 30° C. in ambient air and examined at 24 h and 4-5 days for Staphylococcus strains and Malassezia respectively. After incubation period, 25 μl of AlamarBlue™ solution (¼ diluted with 10 mM Phosphate Buffered Saline 0.05% Tween 20, Sigma P3563) were added to each well. After a second incubation of 2 h (Staphylococcus) and 1 day (Malassezia) at 30° C., endpoints were determined visually by observing a color change from blue (no growth) to pink (growth). MIC was defined as the lowest fatty acid concentration showing no growth (any color change).

[3] = tested on: Staphylococcus aureus; experiment: as above; format: cell-based; settings: four S. aureus strains, 24 h at 30° C.
Text: as §1, §2, §3

[4] = tested on: Malassezia pachydermatis; experiment: as above; format: cell-based; settings: one M. pachydermatis strain, 4-5 days at 30° C.
Text: as §1, §2, §3

[5] = human trial, 600 mg/day for 24 weeks; cited from earlier work

For `CCCCCC/C=C\CCCCCCCC(=O)O` [Palmitoleic, palmitoleic acid], the “Inhibition of skin pathogens in vitro (in words)” value (“Inhibition of skin pathogens” for short) [1] is given as “inhibitory”, the MIC range [2] is given as 0.02 to 0.1 mg/mL and the MIC range [3] is given as 0.02 mg/mL (≈ 78.6 µM).
For `CCCCCCCC/C=C\CCCCCCCC(=O)O` [Oleic, oleic acid], the MIC range [4] was >25 mg/mL, the MIC range [2] was >25 mg/mL and the MIC range [3] was >25 mg/mL.
For `CCCCC/C=C\C/C=C\C/C=C\CCCCC(=O)O` [γ-linolenic acid], the “Improvement of hand dermatitis (in words)” value [5] is listed as “did not improve hand dermatitis significantly”.
For `CCCCC/C=C\C/C=C\CCCCCCCC(=O)O` [linoleic acid], the “Inhibition of skin pathogens” value [1] is given as “inhibitory”.
For `CCCCCCCCCCCC(=O)O` [Lauric, lauric acid], the “Inhibition of skin pathogens” value [1] is listed as “inhibitory”, the MIC range [4] is listed as <0.2 mg/mL and the MIC range [2] is listed as <0.2 to 0.8 mg/mL. The MIC range [3] was <0.2 to 0.4 mg/mL.
